Laboratory results: patent publication EP0519427A2, “N-substituted-3-iodopropiolamide, production and use thereof” (priority 1991, dated 1992)

Columns and labels:
[1] = system: Coptofermes formosanus SHIRAKI; assay: Anti-termite activity, contact toxicity on treated quartz sand; type: in vivo
Protocol: This test was conducted on the basis of the method described in Specification No.11 of Japan Wood Preserving Association, enacted in 1981 and titled "The test methods of anti-termite activity for anti-termite agent used in the coating, spraying and dipping treatment, (1) Laboratory test methods".
The termite to be used was Coptofermes formosanus SHIRAKI ("ieshiroari").
4-2-1 The treated quartz sand was prepared as follows : The quartz sand, which passed through a sieve with 60 mesh screen, of 3 g was mixed with the BACTRO-AGAR solution of 1 ml with good agitation. Then, water content was adjusted to 5 %.
4-2-2 The test quartz sand was prepared as follows : The anti-termite agent solution of intended concentration (ppm) was added to the above treated quartz sand, then was mixed, and then was allowed to stand for 14 days to vaporize solvents.
4-2-3 The test quartz sand of 4 g were put into a Petri dish (6 cm in diameter) sterilized with dry heat.
4-2-4 Ten termite workers were randomly sampled from their nest, and then put on the quartz sand.
4-2-5 Each Petri dish was placed in a vessel containing water in the bottom, and then the vessel was allowed to stand in the constant temperature room at 28 ± 2 °C for 14 days. The number of the dead termites was observed and recorded. The first day : every 2 hours for 8 hours. After the second day : every 24 hour.
4-2-6 Test was repeated three times for each concentration of anti-termite agent solution.
4-3-1 Each time when observing, the number of healthy termites and dead termites were recorded.
4-3-2 The results are shown below in Table 4. […]

[2] = system: Aspergillus Niger (IFO 6341), Penicillium funiculosum (IFO 6345), Rhizopus javanicus (IFO 6354), Aureobasidium pullulans (IFO 6353), Gliocladium virens (IFO …); assay: Fungicide activity for wood fungicide, sum of average ratings and damage value over the five fungi; type: cell-based; settings: for damage value: D = S₁ / S₀ × 100, untreated 100.0, lower = higher fungicide activity; for Sum (of average rating values A₁ to A₅): S = A₁ + A₂ + A₃ + A₄ + A₅, untreated 15.0; for wood fungicide activity (statement in words): summary of Table 3
Protocol: This test was conducted according to Specification No.2 of Japan Wood Preserving Association, enacted in 1979 and titled "Test methods of fungicide activity for wood fungicide".
• ① Aspergillus niger van Tieghem IFO 6341 = ATCC 6275 • ② Penicillium funiculosum Thom (formerly : Penicillium luteum Zukal) IFO 6345 = ATCC 9644 • ③ Rhizopus javanicus Takeda (formerly : Rhizopus nigricans Ehrenberg S.N. 32) IFO 6354 • ④ Aureobasidium pullulans (de Bary) Arnaud IFO 6353 = IAM (H. Iizuka, F-24) • ⑤ Gliocladium virens Miller, Gidden & Fosteb IFO 6355 = ATCC 9645 (formerly : Trichoderma viride, T.I.)
The fungi ① , ② , ③ and ⑤ are classified as fungi imperfecti, and the fungus ④ as blue stain fungus.
The Culture medium comprised the potato-sap agar culture medium (specified in the Japan Industrial Standard (JIS) Z 2911- 1960) of 50 ml, put in the conical flask of 100 ml, sterilized by steam at 1.4-1.6 kgf/cm² .G (137.2-156.8 KPa) for 30 minutes.
The fungi to be used were inoculated into the culture medium specified in the previous section and were cultured at 26 ± 2 °C under the relative humidity of 70-80 % for two weeks.
The potato sap of 50 ml, sterilized, cooled to room temperature and to which dioctyl sodium sulfosuccinate, a wetting agent, was added so as to become 0.005 %, was dropped to the fully breeding fungi layer, and was agitated with a platinum spatula in such a way that the spore was torn off. The resulting liquid filtered by sterilized gauze was the spore suspension.
3-5-1 A Petri dish measured 90-100 mm in diameter and 20 mm in height.
3-5-2 Agar liquid (which has no nutrients) of 2 % sterilized by steam was dropped onto the Petri dish sterilized by dry heat, and then was solidified.
3-5-3 Three mm diameter sterilized glass bars or plastic nets made of polypropylene, etc. were placed to prevent the test specimens from touching with agar directly.
3-6-1 The type of trees for wood specimens was beech. The cross section was of grain face, and the dimension was 20 mm wide 3 mm thick and 50 mm long.
3-6-2 Wood specimens were supplied with nutrients in such a way that they were dipped into the potato-sap (the one in the section 3-2, but agar was not added) for 3 minutes.
3-6-3 Nutrient-supplied wood specimens, after drying at 60 °C, were used for testing immediately. They were temporarily stored at 0 °C, but they were served to tests as soon as possible.
The test specimens were of two types, treated and untreated speciments. The treated specimens referred to the one treated with fungicide. The untreated specimens were of two types, the one really untreated and the other treated with solvent only.
3-7-2-1 Nutrients-supplied wood specimens were dried at 60 ± 2 °C, and then their weights (W₀) were measured. Test specimens of 10-20 pieces were piled up in a one liter beaker in such a way that two specimens constant space apart from each other were alternately put on the other two specimens also constant space apart from each other. On the top of the two specimens, a weight was placed. Through the test specimens thus arranged, the fungicide solution was introduced. The level of the fungicide solution was one centimeter above the top specimens. The test specimens were dipped for three minutes after the fungicide solution introduction.
After finishing dipping, the test specimens were wiped softly, and then the weights (W₁) were measured immediately. As control experiment, the same procedure as the above was done using solvent without fungicide.
3-7-2-2 The amounts of solution pick-up and fungicide pick-up were calculated with the following equations: The amount of solution absorption: RL = W₁ - W₀ [formula] The amount of fungicide absorption: Rc = RL × fungicide concentration [formula] 3-7-2-3 Wood specimens treated were placed without contacting each other, then were air-dried for two days, and then served as the treated test specimens. […]

[3] = concentration 100 ppm, term of contact 1 day
[4] = concentration 100 ppm, term of contact 2 days
[5] = concentration 100 ppm, term of contact 3 days
[6] = concentration 100 ppm, term of contact 5 days
[7] = concentration 1000 ppm, term of contact 1 day
[8] = concentration 1000 ppm, term of contact 2 days
[9] = concentration 1000 ppm, term of contact 3 days
[10] = concentration 1000 ppm, term of contact 5 days

| Structure (SMILES) | Death rate (%) [1, 3] [%] | Death rate (%) [1, 4] [%] | Death rate (%) [1, 5] [%] | Death rate (%) [1, 6] [%] | Death rate (%) [1, 7] [%] | Death rate (%) [1, 8] [%] | Death rate (%) [1, 9] [%] | Death rate (%) [1, 10] [%] | damage value [2] | Sum (of average rating values A₁ to A₅) [2] | wood fungicide activity (statement in words) [2] |
| --- | --- | --- | --- | --- | --- | --- | --- | --- | --- | --- | --- |
| CC(C)(C)NC(=O)C#CI [Example 1, N-(tert-Butyl)-3-iodopropiolamide] | 0 | 0 | 30 | 100 | 0 | 50 | 100 | 100 | 13.3 | 2.0 | excellent wood fungicide activity |
| CCCCCCCCCCNC(=O)C#CI [Example 2, N-(n-Decyl)-3-iodopropiolamide] | – | – | – | – | – | – | – | – | 62.2 | 9.3 | – |
| CCCCNC(=O)C#CI [Example 4, N-(n-Butyl)-3-iodopropiolamide] | 0 | 0 | 30 | 100 | 0 | 30 | 100 | 100 | 6.7 | 1.0 | excellent wood fungicide activity |
| CCC(C)NC(=O)C#CI (stereo not shown) [Example 5, N-(sec-Butyl)-3-iodopropiolamide] | – | – | – | – | – | – | – | – | 28.9 | 4.3 | excellent wood fungicide activity |
| CC(C)CNC(=O)C#CI [Example 6, N-Isobutyl-3-iodopropiolamide] | – | – | – | – | – | – | – | – | 20.2 | 3.0 | excellent wood fungicide activity |
| CCCCCNC(=O)C#CI [Example 7, N-(n-Pentyl)-3-iodopropiolamide] | – | – | – | – | – | – | – | – | 34.4 | 5.2 | – |
| CCCCCCNC(=O)C#CI [Example 8, N-(n-Hexyl)-3-iodopropiolamide] | 0 | 0 | 20 | 100 | 0 | 0 | 70 | 100 | 23.3 | 3.5 | excellent wood fungicide activity |
| CCCCCCCNC(=O)C#CI [Example 9, N-(n-Heptyl)-3-iodopropiolamide] | – | – | – | – | – | – | – | – | 50.0 | 7.5 | – |
| CCCCCCCCNC(=O)C#CI [Example 10, N-(n-Octyl)-3-iodopropiolamide] | – | – | – | – | – | – | – | – | 54.4 | 8.2 | – |
| CCCCCCCCCNC(=O)C#CI [Example 11, N-(n-Nonyl)-3-iodopropiolamide] | – | – | – | – | – | – | – | – | 82.2 | 12.3 | – |
